Measured values as given in patent US7550469B2, “Heterocyclic amide derivatives and their use as dopamine D3 receptor ligands” (Aventis Pharmaceuticals Inc., priority 2001, dated 2009).
pKi: −log10 of the molar value. Like-named read-outs stand apart in the source and are kept apart here.

Molecular target: T1, cloned human dopamine D3 receptors (Homo sapiens, UniProt P35462)
T1 construct: expressed in transfected cells; membrane homogenate
Assay: [N-Methyl-3H]Spiroperidol binding to cloned human dopamine D3 receptors (Protocol 1)
Outline: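 Radioligand displacement with [N-methyl-3H]spiroperidol used a physiological-salt Tris buffer (0.05 M, pH 7.7; NaCl 120 mM, KCl 5 mM, CaCl2 2 mM, MgCl2 1 mM) and membranes of a high-expressing stable CHO clone carrying human D3. Total ligand concentration came from measured added CPM; 0.1% ascorbic acid was optional for oxidizable compounds.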

[1] = the 19th table, read-out: D3 Ki
[2] = the 20th table, read-out: D3 Ki
[3] = the 18th table, read-out: D3 Ki

T1 sequence (P35462 whole entry): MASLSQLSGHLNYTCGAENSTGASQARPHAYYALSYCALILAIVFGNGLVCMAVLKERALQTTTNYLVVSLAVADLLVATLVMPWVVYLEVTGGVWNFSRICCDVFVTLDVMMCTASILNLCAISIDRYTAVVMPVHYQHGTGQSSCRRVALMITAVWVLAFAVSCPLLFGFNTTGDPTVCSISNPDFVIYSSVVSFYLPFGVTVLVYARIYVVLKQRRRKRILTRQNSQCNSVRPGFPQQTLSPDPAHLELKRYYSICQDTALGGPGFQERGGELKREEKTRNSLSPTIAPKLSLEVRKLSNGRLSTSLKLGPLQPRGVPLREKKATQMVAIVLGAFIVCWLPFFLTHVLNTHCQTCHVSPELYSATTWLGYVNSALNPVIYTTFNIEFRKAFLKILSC

| Structure (SMILES) | pKi (read-out: D3K1) | pKi [3] | other results |
| --- | --- | --- | --- |
| O=C(Nc1cccc(CN2CCN(c3csc4cc(F)ccc34)CC2)c1)c1ccsc1 [compound 825654] | – | – | pKi [1]: 6.61 |
| O=C(Nc1cccc(CN2CCN(c3csc4cc(F)ccc34)CC2)c1)c1ccc2[nH]nnc2c1 [compound 825656] | – | – | pKi [1]: 7.48 |
| COc1cc(OC)cc(C(=O)NCc2ccoc2CN2CCN(c3csc4cc(F)ccc34)CC2)c1 [compound 825837] | – | – | pKi [2]: 6.72 |
| O=C(NCc1ccoc1CN1CCN(c2csc3cc(F)ccc23)CC1)c1cccc(C(F)(F)F)c1 [compound 825841] | – | – | pKi [2]: 6.84 |
| COc1ccccc1C(=O)NCc1ccoc1CN1CCN(c2csc3cc(F)ccc23)CC1 [compound 825842] | – | – | pKi [2]: 6.27 |
| O=C(NCc1ccoc1CN1CCN(c2csc3cc(F)ccc23)CC1)c1cc2ccccc2s1 [compound 825844] | – | – | pKi [2]: 6.22 |
| O=C(NCc1ccoc1CN1CCN(c2csc3cc(F)ccc23)CC1)c1ccc(F)cc1 [compound 825845] | – | – | pKi [2]: 6.69 |
| O=C(NCc1ccoc1CN1CCN(c2csc3cc(F)ccc23)CC1)c1ccc(-c2ccccc2)cc1 [compound 825848] | – | – | pKi [2]: 6.60 |
| O=C(NCc1ccoc1CN1CCN(c2csc3cc(F)ccc23)CC1)c1cccnc1Cl [compound 825853] | – | – | pKi [2]: 6.63 |
| O=C(NCc1sccc1CN1CCN(c2csc3cc(F)ccc23)CC1)c1cccs1 [compound 826295] | – | 7.34 | – |
| O=C(NCc1sccc1CN1CCN(c2csc3cc(F)ccc23)CC1)c1cccc(Cl)c1 [compound 826296] | – | 6.97 | – |
| O=C(NCc1sccc1CN1CCN(c2csc3cc(F)ccc23)CC1)c1cccc2ccccc12 [compound 826299] | – | 7.02 | – |
| O=C(NCc1sccc1CN1CCN(c2csc3cc(F)ccc23)CC1)c1ccc2ccccc2c1 [compound 826300] | – | 7.44 | – |
| Cc1ccccc1C(=O)NCc1sccc1CN1CCN(c2csc3cc(F)ccc23)CC1 [compound 826306] | – | 7.05 | – |
| O=C(NCc1sccc1CN1CCN(c2csc3cc(F)ccc23)CC1)c1ccc(-c2ccccc2)cc1 [compound 826308] | – | 6.69 | – |
| CC(C)(C)c1ccc(C(=O)NCc2sccc2CN2CCN(c3csc4cc(F)ccc34)CC2)cc1 [compound 826309] | – | 7.20 | – |
| O=C(NCc1sccc1CN1CCN(c2csc3cc(F)ccc23)CC1)c1cnc2ccccc2n1 [compound 826310] | – | 6.69 | – |

| Structure (SMILES) | pKi (read-out: D3K1) | pKi [3] | other results |
| --- | --- | --- | --- |
| O=C(NCc1sccc1CN1CCN(c2csc3cc(F)ccc23)CC1)c1ccncc1 [compound 826312] | – | 7.54 | – |
| O=C(NCc1sccc1CN1CCN(c2csc3cc(F)ccc23)CC1)c1cccnc1Cl [compound 826313] | – | 6.87 | – |
| O=C(NCc1sccc1CN1CCN(c2csc3cc(F)ccc23)CC1)c1cccc2cc[nH]c12 [compound 826314] | – | 7.34 | – |
| CS(=O)(=O)c1sc(C(=O)NCc2sccc2CN2CCN(c3csc4cc(F)ccc34)CC2)c2c1C=CCC2 [compound 826315] | – | 7.51 | – |
| O=C(NCc1sccc1CN1CCN(c2csc3cc(F)ccc23)CC1)c1csc(-c2cccnc2)n1 [compound 826316] | – | 7.49 | – |
| O=C(NCc1sccc1CN1CCN(c2csc3cc(F)ccc23)CC1)c1csnn1 [compound 826317] | – | 7.32 | – |
| O=C(NCc1sccc1CN1CCN(c2csc3cc(F)ccc23)CC1)c1sccc1-n1cccc1 [compound 826318] | – | 7.05 | – |
| O=C(NCc1sccc1CN1CCN(c2csc3cc(F)ccc23)CC1)c1cc(-c2ccco2)nc2ccccc12 [compound 826319] | – | 6.56 | – |
| O=C(NCc1sccc1CN1CCN(c2csc3cc(F)ccc23)CC1)c1cc2sccc2s1 [compound 826320] | – | 7.12 | – |
| Cc1nn(C)c2sc(C(=O)NCc3sccc3CN3CCN(c4csc5cc(F)ccc45)CC3)cc12 [compound 826321] | – | 7.38 | – |
| Cn1c(C(=O)NCc2sccc2CN2CCN(c3csc4cc(F)ccc34)CC2)cc2ccccc21 [compound 826324] | – | 6.92 | – |
| O=C(NCc1sccc1CN1CCN(c2csc3cc(F)ccc23)CC1)c1c[nH]c2ccccc12 [compound 826325] | – | 7.27 | – |
| O=C(NCc1sccc1CN1CCN(c2csc3cc(F)ccc23)CC1)c1cccc2[nH]ccc12 [compound 826326] | – | 7.15 | – |
| O=C(NCc1sccc1CN1CCN(c2csc3cc(F)ccc23)CC1)c1n[nH]c2ccccc12 [compound 826329] | – | 7.85 | – |
| CC1=C(C(=O)NCc2sccc2CN2CCN(c3csc4cc(F)ccc34)CC2)Cc2ccccc21 [compound 826330] | – | 7.80 | – |
| O=C(NCc1sccc1CN1CCN(c2csc3cc(F)ccc23)CC1)c1cc2ccccc2o1 [compound 826331] | – | 7.29 | – |

More lines, main results first:

| pKi (read-out: D3K1) | pKi [3] | Structure (SMILES) | other results |
| --- | --- | --- | --- |
| 7.21 | – | COc1ccc(C(=O)NCC2C(CN3CCN(c4csc5cc(C(F)(F)F)ccc45)CC3)C2(C)C)cc1OC (stereo not drawn) [compound 826272] | – |
| 7.29 | – | CC1(C)C(CNC(=O)c2ccc(F)cc2)C1CN1CCN(c2csc3cc(C(F)(F)F)ccc23)CC1 (stereo not drawn) [compound 826273] | – |
| 7.17 | – | CC1(C)C(CNC(=O)c2cccc(F)c2)C1CN1CCN(c2csc3cc(C(F)(F)F)ccc23)CC1 (stereo not drawn) [compound 826274] | – |
| 7.04 | – | CC1(C)C(CNC(=O)c2ccccc2)C1CN1CCN(c2csc3cc(C(F)(F)F)ccc23)CC1 (stereo not drawn) [compound 826275] | – |
| 7.24 | – | CC1(C)C(CNC(=O)c2cccs2)C1CN1CCN(c2csc3cc(C(F)(F)F)ccc23)CC1 (stereo not drawn) [compound 826276] | – |
| 7.69 | – | CC1(C)C(CNC(=O)c2ccc3ccccc3c2)C1CN1CCN(c2csc3cc(C(F)(F)F)ccc23)CC1 (stereo not drawn) [compound 826277] | – |
| 7.06 | – | CC1(C)C(CNC(=O)c2cccc(C(F)(F)F)c2)C1CN1CCN(c2csc3cc(C(F)(F)F)ccc23)CC1 (stereo not drawn) [compound 826278] | – |
| 6.94 | – | CC1(C)C(CNC(=O)c2cccc(C#N)c2)C1CN1CCN(c2csc3cc(C(F)(F)F)ccc23)CC1 (stereo not drawn) [compound 826280] | – |
| 7.14 | – | CC1(C)C(CNC(=O)Cc2ccccc2)C1CN1CCN(c2csc3cc(C(F)(F)F)ccc23)CC1 (stereo not drawn) [compound 826281] | – |
| 7.11 | – | COc1ccc2[nH]c(C(=O)NC[C@@H]3CCCC[C@H]3CN3CCN(c4csc5cc(C(F)(F)F)ccc45)CC3)cc2c1 [compound 826284] | – |
| 6.77 | – | O=C(NC[C@@H]1CCCC[C@H]1CN1CCN(c2csc3cc(C(F)(F)F)ccc23)CC1)c1cc2ccccc2[nH]1 [compound 826285] | – |
| 7.14 | – | O=C(NCC1CCC1CN1CCN(c2csc3cc(C(F)(F)F)ccc23)CC1)c1cc2ccccc2[nH]1 (stereo not drawn) [compound 826290] | – |
| 7.43 | – | COc1ccc2[nH]c(C(=O)NCC3CCC3CN3CCN(c4csc5cc(C(F)(F)F)ccc45)CC3)cc2c1 (stereo not drawn) [compound 826291] | – |
| 6.70 | – | O=C(NCC1CCC1CN1CCN(c2csc3cc(C(F)(F)F)ccc23)CC1)c1cc2ccccc2s1 (stereo not drawn) [compound 826292] | – |
| 6.62 | – | O=C(Cc1ccccc1)NCC1CCC1CN1CCN(c2csc3cc(C(F)(F)F)ccc23)CC1 (stereo not drawn) [compound 826293] | – |
| – | 7.51 | COc1cc(OC)cc(C(=O)NCc2sccc2CN2CCN(c3csc4cc(F)ccc34)CC2)c1 [compound 826297] | – |
| – | 7.23 | O=C(NCc1sccc1CN1CCN(c2csc3cc(F)ccc23)CC1)c1ccc(OC(F)(F)F)cc1 [compound 826298] | – |
| – | 7.03 | O=C(NCc1sccc1CN1CCN(c2csc3cc(F)ccc23)CC1)c1cccc(C(F)(F)F)c1 [compound 826301] | – |
| – | 7.80 | COc1ccccc1C(=O)NCc1sccc1CN1CCN(c2csc3cc(F)ccc23)CC1 [compound 826302] | – |
| – | 7.19 | O=C(NCc1sccc1CN1CCN(c2csc3cc(F)ccc23)CC1)c1cccc(F)c1 [compound 826303] | – |

| pKi (read-out: D3K1) | pKi [3] | Structure (SMILES) | other results |
| --- | --- | --- | --- |
| – | 7.08 | O=C(NCc1sccc1CN1CCN(c2csc3cc(F)ccc23)CC1)c1ccc(F)cc1 [compound 826304] | – |
| – | 7.52 | COc1ccc(C(=O)NCc2sccc2CN2CCN(c3csc4cc(F)ccc34)CC2)cc1OC [compound 826305] | – |
| – | 7.33 | COc1cccc(C(=O)NCc2sccc2CN2CCN(c3csc4cc(F)ccc34)CC2)c1 [compound 826307] | – |
| – | 7.13 | O=C(NCc1sccc1CN1CCN(c2csc3cc(F)ccc23)CC1)c1ccc(C(F)(F)F)cc1 [compound 826311] | – |
| – | 6.53 | O=C(NCc1sccc1CN1CCN(c2csc3cc(F)ccc23)CC1)c1cc2ccccc2[nH]1 [compound 826322] | – |
| – | 7.17 | COc1ccc2[nH]c(C(=O)NCc3sccc3CN3CCN(c4csc5cc(F)ccc45)CC3)cc2c1 [compound 826323] | – |
| – | 7.70 | O=C(NCc1sccc1CN1CCN(c2csc3cc(F)ccc23)CC1)c1ccc2[nH]ccc2c1 [compound 826327] | – |
| – | 7.55 | O=C(NCc1sccc1CN1CCN(c2csc3cc(F)ccc23)CC1)c1ccc2cc[nH]c2c1 [compound 826328] | – |
| 7.70 | – | O=C(NC/C=C\CN1CCN(c2csc3cc(C(F)(F)F)ccc23)CC1)c1ccsc1 [compound 826332] | – |
| 7.62 | – | O=C(NC/C=C\CN1CCN(c2csc3cc(C(F)(F)F)ccc23)CC1)C1CCC1 [compound 826333] | – |
| 7.68 | – | O=C(NC/C=C\CN1CCN(c2csc3cc(C(F)(F)F)ccc23)CC1)C1CCCC1 [compound 826334] | – |
| 7.38 | – | O=C(NC/C=C\CN1CCN(c2csc3cc(C(F)(F)F)ccc23)CC1)c1ccccn1 [compound 826335] | – |
| 7.39 | – | O=C(NC/C=C\CN1CCN(c2csc3cc(C(F)(F)F)ccc23)CC1)c1cccnc1 [compound 826336] | – |
| 7.54 | – | O=C(NC/C=C\CN1CCN(c2csc3cc(C(F)(F)F)ccc23)CC1)c1ccccc1 [compound 826337] | – |
| 7.03 | – | O=C(NC/C=C\CN1CCN(c2csc3cc(C(F)(F)F)ccc23)CC1)c1cc(F)cc(F)c1 [compound 826338] | – |
| 7.62 | – | O=C(NC/C=C\CN1CCN(c2csc3cc(C(F)(F)F)ccc23)CC1)C1CCCCC1 [compound 826339] | – |
| 7.14 | – | O=C(NC/C=C\CN1CCN(c2csc3cc(C(F)(F)F)ccc23)CC1)c1cccc(Cl)c1 [compound 826340] | – |
| 7.96 | – | O=C(NC/C=C\CN1CCN(c2csc3cc(C(F)(F)F)ccc23)CC1)c1ccc(F)cc1 [compound 826341] | – |
| 7.33 | – | O=C(NC/C=C\CN1CCN(c2csc3cc(C(F)(F)F)ccc23)CC1)c1cccc(F)c1 [compound 826342] | – |
